We go through 15 molecules from PubChem BioAssay AID256 (DTP/NCI, 2004).

SMILES strings stand for the structures. Inconclusive results and toxic doses are left out.

The test system of this test is CD2F1 mice, L1210 leukemia ip, survival T/C. Nature of the test: NCI In Vivo Anticancer Drug Screen. Data for tumor model L1210 Leukemia (intraperitoneal) in CD2F1 (CDF1) mice. As to conditions: endpoint: mean survival time, higher = longer survival. The method in brief: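 Ratio T/C, where T is the treated-group value and C the vehicle-dosed control value, from mice implanted with a transplantable tumor.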

[1] abbreviates: dose: 100.0 mg/kg/injection, schedule: Q01DX009 (ip), vehicle: saline with Tween-80.
[2] abbreviates: dose: 100.0 mg/kg/injection, schedule: Q04DX003 (ip), vehicle: saline with Tween-80.
The mark [3] stands for this setting: dose: 200.0 mg/kg/injection, schedule: Q01DX009 (ip), vehicle: saline with Tween-80.
The mark [4] stands for this setting: dose: 200.0 mg/kg/injection, schedule: Q04DX003 (ip), vehicle: saline with Tween-80.
Where [5] appears, read: dose: 400.0 mg/kg/injection, schedule: Q04DX003 (ip), vehicle: saline with Tween-80.

Turning to `CCCCCCCCCCCCCCCCCC(=O)NN`, the T/C by setting is: under setting [1], 93 % of control; under setting [2], 91 % of control; under setting [3], 104 % of control; under setting [4], 96 % of control; (dose: 266.0 mg/kg/injection, schedule: Q01DX009 (ip), vehicle: saline with Tween-80) 119 % of control; under setting [5], 109 % of control. Besides, the T/C (dose: 600.0 mg/kg/injection, schedule: Q01DX009 (ip), vehicle: saline with Tween-80) was 119 % of control.

As for `O=[N+]([O-])c1ccc(N=Nc2ccc(N3CC3)c([N+](=O)[O-])c2)cc1`, the T/C (dose: 65.0 mg/kg/injection, schedule: Q01DX001 (ip), vehicle: Klucel (hydroxypropylcellulose) (HPC)) is 96 % of control; the T/C (dose: 130.0 mg/kg/injection, schedule: Q01DX001 (ip), vehicle: Klucel (hydroxypropylcellulose) (HPC)) is 88 % of control; the T/C (dose: 260.0 mg/kg/injection, schedule: Q01DX001 (ip), vehicle: Klucel (hydroxypropylcellulose) (HPC)) is 89 % of control.

With `CCC(C)(C[NH-])C[NH-].[Cl][Pt+2][Cl]`, the T/C reads like this: (dose: 1.56 mg/kg/injection, schedule: Q04DX003 (ip), vehicle: saline) 114 % of control; (dose: 3.12 mg/kg/injection, schedule: Q04DX003 (ip), vehicle: saline) 118 % of control; (dose: 6.25 mg/kg/injection, schedule: Q04DX003 (ip), vehicle: saline) 124 % of control; (dose: 12.5 mg/kg/injection, schedule: Q04DX003 (ip), vehicle: saline with Tween-80) 285 % of control; (dose: 25.0 mg/kg/injection, schedule: Q04DX003 (ip), vehicle: saline) 312 % of control.

As to `Nc1nc(N)c2nc(CN(CCO)c3ccc(C(=O)NC(CCC(=O)O)C(=O)O)cc3)cnc2n1` (configuration not stated), the T/C was 162 % of control (dose: 2.0 mg/kg/injection, schedule: Q01DX009 (ip), vehicle: Klucel (hydroxypropylcellulose) (HPC)); 190 % of control (dose: 4.0 mg/kg/injection, schedule: Q01DX009 (ip), vehicle: Klucel (hydroxypropylcellulose) (HPC)); 171 % of control (dose: 8.0 mg/kg/injection, schedule: Q01DX009 (ip), vehicle: Klucel (hydroxypropylcellulose) (HPC)).

Take `COC(c1ccccc1)C(Br)c1ccccc1` (configuration not stated): the T/C was 97 % of control under setting [1]; 103 % of control (dose: 100.0 mg/kg/injection, schedule: Q04DX003 (ip), vehicle: saline sonified); 97 % of control under setting [3]; 100 % of control (dose: 200.0 mg/kg/injection, schedule: Q04DX003 (ip), vehicle: saline sonified); 109 % of control (dose: 400.0 mg/kg/injection, schedule: Q01DX009 (ip), vehicle: saline with Tween-80); 105 % of control (dose: 400.0 mg/kg/injection, schedule: Q04DX003 (ip), vehicle: saline sonified).

Consider `CCCCNCCCNCCCNC(=O)c1csc(-c2csc(CCNC(=O)C(NC(=O)C(C)C(O)C(C)NC(=O)C(NC(=O)c3nc(C(CC(N)=O)NCC(N)C(N)=O)nc(N)c3C)C(OC3OC(CO)C(O)C(O)C3OC3OC(CO)C(O)C(OC(N)=O)C3O)c3cnc[nH]3)C(C)O)n2)n1` (configuration not stated), for which the T/C reads like this: (dose: 2.5 mg/kg/injection, schedule: Q01DX009 (ip), vehicle: saline) 101 % of control; (dose: 5.0 mg/kg/injection, schedule: Q01DX009 (ip), vehicle: saline) 101 % of control; (dose: 10.0 mg/kg/injection, schedule: Q01DX009 (ip), vehicle: saline) 114 % of control; (dose: 20.0 mg/kg/injection, schedule: Q01DX009 (ip), vehicle: saline) 104 % of control; (dose: 40.0 mg/kg/injection, schedule: Q01DX009 (ip), vehicle: saline) 104 % of control.

For `COCS(=O)[O-].[C-]#[O+].[C-]#[O+].[Fe+6].[c-]1[c-][c-][cH-][c-]1`, the T/C was 101 % of control (dose: 12.5 mg/kg/injection, schedule: Q04DX002 (ip), vehicle: saline); 93 % of control (dose: 25.0 mg/kg/injection, schedule: Q04DX002 (ip), vehicle: saline); 96 % of control (dose: 50.0 mg/kg/injection, schedule: Q04DX002 (ip), vehicle: saline).

As for `c1coc(CNc2ncnc3c2ncn3Cc2ccco2)c1`, the T/C was 96 % of control (dose: 6.25 mg/kg/injection, schedule: Q01DX005 (ip), vehicle: other); 90 % of control (dose: 12.5 mg/kg/injection, schedule: Q01DX005 (ip), vehicle: other); 90 % of control (dose: 25.0 mg/kg/injection, schedule: Q01DX005 (ip), vehicle: other).

As to `COc1cc2c(cc1OC)C(NC=O)CCC2` (configuration not stated), the T/C reads like this: (dose: 12.5 mg/kg/injection, schedule: Q01DX009 (ip), vehicle: water) 102 % of control; (dose: 25.0 mg/kg/injection, schedule: Q01DX009 (ip), vehicle: water) 102 % of control; (dose: 50.0 mg/kg/injection, schedule: Q01DX009 (ip), vehicle: water) 102 % of control; (dose: 100.0 mg/kg/injection, schedule: Q01DX009 (ip), vehicle: water) 100 % of control; (dose: 200.0 mg/kg/injection, schedule: Q01DX009 (ip), vehicle: water) 104 % of control.

In the case of `COc1ccccc1NC(=O)NC1C(OC(C)=O)OC(COC(C)=O)C(OC(C)=O)C1OC(C)=O` (configuration not stated), the T/C is 93 % of control (dose: 12.5 mg/kg/injection, schedule: Q01DX009 (ip), vehicle: other); 94 % of control (dose: 25.0 mg/kg/injection, schedule: Q01DX009 (ip), vehicle: other); 98 % of control (dose: 50.0 mg/kg/injection, schedule: Q01DX009 (ip), vehicle: other); 94 % of control (dose: 100.0 mg/kg/injection, schedule: Q01DX009 (ip), vehicle: other); 93 % of control (dose: 200.0 mg/kg/injection, schedule: Q01DX009 (ip), vehicle: other).

For the molecule `CN1CCSC1=S`, the T/C is 92 % of control (dose: 75.0 mg/kg/injection, schedule: Q01DX001 (ip), vehicle: other); 96 % of control (dose: 150.0 mg/kg/injection, schedule: Q01DX001 (ip), vehicle: other); 104 % of control (dose: 300.0 mg/kg/injection, schedule: Q01DX001 (ip), vehicle: other).

In the case of `CC1(C)N=C(N)N=C(N)N1c1ccc(CC(=O)Nc2ccc(S(=O)(=O)F)cc2)cc1`, the T/C by setting is: (dose: 100.0 mg/kg/injection, schedule: Q01DX001 (ip), vehicle: saline) 102 % of control; (dose: 200.0 mg/kg/injection, schedule: Q01DX001 (ip), vehicle: saline) 97 % of control; (dose: 400.0 mg/kg/injection, schedule: Q01DX001 (ip), vehicle: saline) 96 % of control.

With `CC(=O)Nc1ccc(C(=O)O)cc1`, the T/C is 96 % of control under setting [2], 98 % of control under setting [4] and 100 % of control under setting [5].

Regarding `CC(=O)OCC1OC(OC(C)=O)C(NC(=O)N(CCOCCCl)N=O)C(OC(C)=O)C1OC(C)=O` (configuration not stated), the T/C was 101 % of control (dose: 6.25 mg/kg/injection, schedule: Q01DX001 (ip), vehicle: distilled water + Tween-80); 101 % of control (dose: 12.5 mg/kg/injection, schedule: Q01DX001 (ip), vehicle: distilled water + Tween-80); 93 % of control (dose: 25.0 mg/kg/injection, schedule: Q01DX001 (ip), vehicle: distilled water + Tween-80); 93 % of control (dose: 50.0 mg/kg/injection, schedule: Q01DX001 (ip), vehicle: distilled water + Tween-80); 101 % of control (dose: 100.0 mg/kg/injection, schedule: Q01DX001 (ip), vehicle: distilled water + Tween-80); 97 % of control (dose: 200.0 mg/kg/injection, schedule: Q01DX001 (ip), vehicle: distilled water + Tween-80). Besides, the T/C (dose: 400.0 mg/kg/injection, schedule: Q01DX001 (ip), vehicle: distilled water + Tween-80) was 109 % of control.

Regarding `CCC[CH2][Sn]1([CH2]CCC)[O]C2C(CO)OC(n3ccc4c(N)ncnc43)C2[O]1` (configuration not stated), the T/C by setting is: (dose: 0.39 mg/kg/injection, schedule: Q01DX005 (ip), vehicle: water) 97 % of control; (dose: 0.78 mg/kg/injection, schedule: Q01DX005 (ip), vehicle: water) 103 % of control; (dose: 1.56 mg/kg/injection, schedule: Q01DX005 (ip), vehicle: other) 111 % of control; (dose: 1.56 mg/kg/injection, schedule: Q01DX005 (ip), vehicle: water) 90 % of control; (dose: 3.13 mg/kg/injection, schedule: Q01DX005 (ip), vehicle: other) 95 % of control; (dose: 3.13 mg/kg/injection, schedule: Q01DX005 (ip), vehicle: water) 106 % of control.
